From the supplement of paper PMC11368000

Tests used:
Details in all cases: exposure time: 90 min
[1] = tested on: 1535 (donor line of iPSC-derived cardiomyocytes); assay: POD (EC10) for decrease in total cell number (cytotoxicity) vs vehicle; higher = less potent (higher point of departure)
Summary of the method: (§1)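 Human iPSC-derived cardiomyocytes from 16 donors were cultured 14 days in 384-well plates, then exposed for 90 min at 37 °C to 0.1, 1, 10 and 100 µM (final, 0.5% DMSO). After the Ca2+ flux read, cells were stained 15 min with Hoechst 33342 (2.2 µg/mL) and MitoTracker Orange and imaged at 10× on an ImageXpress Micro Confocal. Nuclei were counted per field in MetaXpress. Donor-specific cytotoxicity points of departure came from hierarchical Bayesian Hill fits to vehicle-normalised counts, using a 10% decrease.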

[2] = tested on: 20032 (donor line of iPSC-derived cardiomyocytes); assay: as above
Summary of the method: as §1

[3] = tested on: 11235 (donor line of iPSC-derived cardiomyocytes); assay: as above
Summary of the method: as §1

[4] = tested on: 1309 (donor line of iPSC-derived cardiomyocytes); assay: as above
Summary of the method: as §1

[5] = tested on: 1368 (donor line of iPSC-derived cardiomyocytes); assay: as above
Summary of the method: as §1

[6] = tested on: 1516 (donor line of iPSC-derived cardiomyocytes); assay: as above
Summary of the method: as §1

[7] = tested on: 1565 (donor line of iPSC-derived cardiomyocytes); assay: as above
Summary of the method: as §1

[8] = tested on: 30171 (donor line of iPSC-derived cardiomyocytes); assay: as above
Summary of the method: as §1

[9] = tested on: 20084 (donor line of iPSC-derived cardiomyocytes); assay: as above
Summary of the method: as §1

[10] = tested on: 1531 (donor line of iPSC-derived cardiomyocytes); assay: as above
Summary of the method: as §1

[11] = tested on: 1083 (donor line of iPSC-derived cardiomyocytes); assay: as above
Summary of the method: as §1

[12] = tested on: 1118 (donor line of iPSC-derived cardiomyocytes); assay: as above
Summary of the method: as §1

[13] = tested on: 1392 (donor line of iPSC-derived cardiomyocytes); assay: POD (EC05) for increase in Ca2+ transient decay-to-rise ratio (QT prolongation) vs vehicle; higher = less potent (higher point of departure)
Description: (§2)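 Human iPSC-derived cardiomyocytes from 16 donors were exposed for 90 min at 37 °C to each PFAS at 0.1, 1, 10 and 100 µM in 0.5% DMSO, 384-well plates. Kinetic Ca2+ flux (FLIPR) and Hoechst nuclei counts were normalised to vehicle wells and fitted with a hierarchical Bayesian Hill model to give donor-specific PODs: EC05 for beat-rate increase or decrease and for decay-to-rise ratio increase (QT proxy), EC95 for peak-frequency loss (asystole), EC10 for total cell number loss. 0.03 µM is the lower bound.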

[14] = tested on: 1535; assay: as above
Description: as §2

[15] = tested on: 20032; assay: as above
Description: as §2

[16] = tested on: 30145 (donor line of iPSC-derived cardiomyocytes); assay: as above
Description: as §2

[17] = tested on: 1309; assay: as above
Description: as §2

[18] = tested on: 20084; assay: as above
Description: as §2

[19] = tested on: 1083; assay: as above
Description: as §2

[20] = tested on: 1118; assay: as above
Description: as §2

Row | SMILES | POD vs vehicle [1] [µM] | POD vs vehicle [2] [µM] | POD vs vehicle [3] [µM] | POD vs vehicle [4] [µM] | POD vs vehicle [5] [µM] | POD vs vehicle [6] [µM] | POD vs vehicle [7] [µM] | POD vs vehicle [8] [µM] | POD vs vehicle [9] [µM] | POD vs vehicle [10] [µM] | POD vs vehicle [11] [µM] | POD vs vehicle [12] [µM] | POD vs vehicle [13] [µM] | POD vs vehicle [14] [µM] | POD vs vehicle [15] [µM] | POD vs vehicle [16] [µM] | POD vs vehicle [17] [µM] | POD vs vehicle [18] [µM] | POD vs vehicle [19] [µM] | POD vs vehicle [20] [µM]
1 | OCC(F)(F)C(F)(F)C(F)(F)CO [Hexafluoroamylene_glycol] | > 100 | > 100 | > 100 | > 100 | > 100 | > 100 | > 100 | > 100 | > 100 | > 100 | > 100 | > 100 | > 100 | > 100 | > 100 | > 100 | > 100 | > 100 | > 100 | > 100
2 | NC(=O)C(F)(F)C(F)(F)C(F)(F)C(F)(F)C(N)=O [Octafluoroadipamide] | > 100 | > 100 | > 100 | > 100 | > 100 | > 100 | > 100 | > 100 | > 100 | > 100 | > 100 | > 100 | > 100 | > 100 | > 100 | > 100 | > 100 | > 100 | > 100 | > 100
3 | O=S(=O)(OCC(F)(F)F)C(F)(F)C(F)(F)C(F)(F)C(F)(F)F [2,2,2-Trifluoroethyl_perfluorobutanesulfonate] | > 100 | > 100 | > 100 | > 100 | > 100 | > 100 | > 100 | > 100 | > 100 | > 100 | > 100 | > 100 | > 100 | > 100 | > 100 | > 100 | > 100 | > 100 | > 100 | > 100
4 | COC(=O)C(F)(F)C(F)(F)OC(F)(C(F)(F)F)C(F)(F)OC(F)=C(F)F (stereo not given) [Methyl_perfluoro(3-(1-ethenyloxypropan-2-yloxy)propanoate)] | > 100 | 0.591 | > 100 | > 100 | > 100 | > 100 | > 100 | > 100 | > 100 | > 100 | > 100 | > 100 | > 100 | > 100 | > 100 | > 100 | > 100 | 37.5 | > 100 | > 100
5 | O=C(O)C(F)(F)OC(F)(F)C(F)(F)OC(F)(F)C(=O)O [Perfluoro-3,6-dioxaoctane-1,8-dioic_acid] | > 100 | > 100 | > 100 | > 100 | > 100 | > 100 | > 100 | > 100 | > 100 | > 100 | > 100 | > 100 | > 100 | > 100 | > 100 | > 100 | > 100 | > 100 | > 100 | > 100
6 | O=C(O)CCC(F)(F)C(F)(F)C(F)(F)F [3:3 Fluorotelomer carboxylic acid] | > 100 | > 100 | > 100 | > 100 | > 100 | > 100 | > 100 | > 100 | > 100 | > 100 | > 100 | > 100 | > 100 | > 100 | > 100 | > 100 | > 100 | > 100 | > 100 | > 100
7 | OCC(F)(F)C(F)(F)C(F)(F)C(F)F [1H,1H,5H-Perfluoropentanol] | > 100 | > 100 | > 100 | > 100 | > 100 | > 100 | > 100 | > 100 | > 100 | > 100 | > 100 | > 100 | > 100 | > 100 | > 100 | > 100 | > 100 | 5.77 | > 100 | > 100
8 | O=C(O)CCC(F)(F)C(F)(F)C(F)(F)C(F)(F)C(F)(F)C(F)(F)C(F)(F)F [3-Perfluoroheptylpropanoic_acid] | > 100 | > 100 | > 100 | > 100 | > 100 | > 100 | > 100 | > 100 | > 100 | > 100 | > 100 | > 100 | > 100 | > 100 | 33.8 | > 100 | > 100 | 36.7 | > 100 | > 100
9 | O=C(O)C(F)(F)C(F)(F)C(F)(F)C(F)(F)C(F)(F)C(F)(F)C(F)(F)F [Perfluorooctanoic_acid] | > 100 | > 100 | > 100 | > 100 | > 100 | > 100 | > 100 | > 100 | > 100 | > 100 | > 100 | > 100 | > 100 | > 100 | > 100 | > 100 | > 100 | > 100 | > 100 | > 100
10 | O=S(=O)([O-])C(F)(F)C(F)(F)C(F)(F)C(F)(F)F.[K+] [Potassium_perfluorobutanesulfonate] | > 100 | > 100 | > 100 | > 100 | > 100 | > 100 | > 100 | > 100 | > 100 | > 100 | > 100 | > 100 | > 100 | > 100 | > 100 | > 100 | > 100 | > 100 | > 100 | > 100
11 | O=C(O)C=C(C(F)(F)F)C(F)(F)F [3,3-Bis(trifluoromethyl)-2-propenoic_acid] | > 100 | > 100 | > 100 | > 100 | > 100 | > 100 | > 100 | > 100 | > 100 | > 100 | > 100 | > 100 | > 100 | > 100 | > 100 | > 100 | > 100 | > 100 | > 100 | > 100
12 | NC(O)(C(F)(F)F)C(F)(F)F [2-Aminohexafluoropropan-2-ol] | > 100 | > 100 | > 100 | > 100 | > 100 | > 100 | > 100 | > 100 | > 100 | > 100 | > 100 | > 100 | > 100 | > 100 | > 100 | > 100 | > 100 | > 100 | > 100 | > 100
13 | O=S(=O)(O)CCC(F)(F)C(F)(F)C(F)(F)C(F)(F)C(F)(F)C(F)(F)C(F)(F)C(F)(F)F [8:2 Fluorotelomer sulfonic acid] | > 100 | > 100 | > 100 | > 100 | > 100 | > 100 | > 100 | > 100 | > 100 | > 100 | > 100 | > 100 | > 100 | > 100 | > 100 | > 100 | > 100 | 21.9 | > 100 | > 100
14 | O=C(O)C(F)(F)C(F)(F)C(F)(F)C(F)(F)C(F)(F)C(F)(F)C(F)(F)C(F)(F)C(F)(F)C(F)(F)F [Perfluoroundecanoic_acid] | > 100 | > 100 | > 100 | > 100 | > 100 | > 100 | > 100 | > 100 | > 100 | > 100 | > 100 | > 100 | > 100 | > 100 | > 100 | > 100 | > 100 | > 100 | > 100 | > 100
15 | O=C([O-])C(F)(F)C(F)(F)C(F)(F)C(F)(F)C(F)(F)C(F)(F)C(F)(F)F.[NH4+] [Ammonium_perfluorooctanoate] | > 100 | > 100 | > 100 | > 100 | > 100 | > 100 | > 100 | > 100 | > 100 | > 100 | > 100 | > 100 | > 100 | > 100 | > 100 | > 100 | > 100 | > 100 | > 100 | > 100
16 | OCC(O)CC(F)(F)C(F)(F)C(F)(F)C(F)(F)C(F)(F)C(F)(F)C(F)(F)C(F)(F)F (stereo not given) [1-(Perfluorofluorooctyl)propane-2,3-diol] | > 100 | > 100 | > 100 | > 100 | > 100 | > 100 | > 100 | > 100 | > 100 | > 100 | > 100 | > 100 | > 100 | > 100 | > 100 | > 100 | > 100 | > 100 | > 100 | > 100
17 | O=S(=O)(O)C(F)(F)C(F)(F)C(F)(F)C(F)(F)C(F)(F)C(F)(F)C(F)(F)C(F)(F)F [Perfluorooctanesulfonic_acid] | > 100 | > 100 | > 100 | 88.7 | > 100 | > 100 | > 100 | > 100 | > 100 | > 100 | > 100 | > 100 | > 100 | > 100 | > 100 | > 100 | > 100 | > 100 | > 100 | > 100
18 | OCCC(F)(F)C(F)(F)C(F)(F)C(F)(F)C(F)(F)C(F)(F)C(F)(F)C(F)(F)F [8:2 Fluorotelomer alcohol] | > 100 | > 100 | > 100 | > 100 | > 100 | > 100 | > 100 | > 100 | > 100 | > 100 | > 100 | > 100 | > 100 | > 100 | > 100 | > 100 | > 100 | > 100 | > 100 | > 100
